Source: ChEMBL document CHEMBL1201862, “PubChem BioAssay data set” (2004)
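A five-concentration, 48-hour dose response in 96-well plates underlies each endpoint, interpolated linearly between surrounding concentrations. GI50 marks 50% less growth.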 Active and inactive are the calls of the source. No stated cut-off is given here; in the data, active = GI50 up to about 1.1 µM and inactive = higher.

How the values were obtained:
Assay in all cases: inhibition of tumour cell growth, NCI panel, 48 h
[1] = test system: KM12
[2] = test system: HOP-92
[3] = test system: NCI-H226
[4] = test system: ACHN
[5] = test system: A549
[6] = test system: CAKI-1
[7] = test system: M14
[8] = test system: CCRF-CEM
[9] = test system: TK-10
[10] = test system: OVCAR-5
[11] = test system: SK-MEL-28
[12] = test system: OVCAR-3
[13] = test system: SNB-19
[14] = test system: SW-620
[15] = test system: 786-0
[16] = test system: COLO 205
[17] = test system: MOLT-4
[18] = test system: OVCAR-4
[19] = test system: T47D

Measured: GI50

c1ccc2sc(C3(N4CCCC4)CCCCCC3)cc2c1
inactive: [1] 12.9 µM | [2] 12.6 µM | [3] 21.3 µM | [4] 23.6 µM | [5] 19.6 µM | [6] 20.9 µM | [7] 14.8 µM | [8] 10.7 µM | [9] 17.4 µM | [10] 11.7 µM | [11] 20.4 µM | [12] 14.3 µM | [13] 14 µM | [14] 16.9 µM | [15] 14.1 µM | [16] 14 µM | [17] 12.5 µM | [18] 13.4 µM

Cc1n[nH]c(=O)n1N1C(=O)CCCC1=O
inactive: [3] > 100 µM | [5] > 100 µM | [6] > 100 µM | [7] > 100 µM | [8] > 100 µM | [9] > 100 µM | [10] > 100 µM | [12] > 100 µM | [15] > 100 µM | [16] > 100 µM | [19] > 100 µM | [17] 22.6 µM

C[C@]12C(=O)C=CCC1=CC[C@@H]1[C@@H]2[C@H]2CC3(O)C(=O)O[C@@]4(C)[C@H]5C[C@@]6(C)[C@@H]7[C@@]2(O)[C@]1(OC[C@H]6C(=O)O5)O[C@]734 (some centres undefined)
inactive: [1] 30.5 µM | [2] 68.4 µM | [4] 61.9 µM | [5] > 100 µM | [6] 40.7 µM | [7] 28.8 µM | [8] 20.8 µM | [9] 93.8 µM | [10] 29 µM | [11] 28.4 µM | [13] 62.4 µM | [14] 35.2 µM | [15] 34.5 µM | [16] 39.6 µM | [17] 23.2 µM | [18] 54.3 µM

CCOC(CNc1nn2c(C)nnc2s1)OCC
inactive: [1] > 100 µM | [2] > 100 µM | [3] > 100 µM | [4] > 100 µM | [5] > 100 µM | [6] > 100 µM | [7] > 100 µM | [8] > 100 µM | [9] > 100 µM | [10] > 100 µM | [11] > 100 µM | [12] > 100 µM | [13] > 100 µM | [14] > 100 µM | [15] > 100 µM | [16] > 100 µM | [17] > 100 µM | [18] > 100 µM

CC(NC(=O)C(N)CC(=O)O)NC(=O)N(C)C(C)(C)C (centres undefined)
inactive: [1] > 100 µM | [3] > 100 µM | [4] > 100 µM | [5] > 100 µM | [6] > 100 µM | [7] > 100 µM | [8] > 100 µM | [9] > 100 µM | [10] > 100 µM | [11] > 100 µM | [12] > 100 µM | [13] > 100 µM | [14] > 100 µM | [15] > 100 µM | [16] > 100 µM | [19] > 100 µM | [17] > 100 µM | [18] > 100 µM

O=C(CN1CCOCC1)c1ccc2[nH]c(=O)oc2c1
inactive: [1] > 100 µM | [3] > 100 µM | [4] > 100 µM | [6] > 100 µM | [7] > 100 µM | [8] > 100 µM | [9] > 100 µM | [10] > 100 µM | [11] > 100 µM | [12] > 100 µM | [13] > 100 µM | [14] > 100 µM | [15] > 100 µM | [16] > 100 µM | [17] > 100 µM

CC1(C)Oc2ccc3c(=O)c(-c4ccccc4)c(-c4ccccc4)oc3c2C1C(=O)O (centres undefined)
inactive: [3] > 100 µM | [5] > 100 µM | [6] > 100 µM | [7] > 100 µM | [8] > 100 µM | [9] > 100 µM | [10] > 100 µM | [12] > 100 µM | [15] > 100 µM | [16] > 100 µM | [19] > 100 µM | [17] 48.3 µM | [18] 77.1 µM

COc1cc(/C=C2\CCC(C)c3c2nc(N)c(C#N)c3-c2cc(OC)c(OC)c(OC)c2)cc(OC)c1OC (centres undefined)
inactive: [1] 51.6 µM | [2] 67.5 µM | [4] > 100 µM | [5] > 100 µM | [6] > 100 µM | [7] 45.7 µM | [8] 23.7 µM | [9] 75.3 µM | [10] > 100 µM | [11] > 100 µM | [13] 54 µM | [14] 81.8 µM | [15] 37.4 µM | [17] 25.2 µM | [18] 31.5 µM

COC(=O)/C=C\[C@@H]1[C@H](C)N1S(=O)(=O)c1ccc(C)cc1 (some centres undefined)
inactive: [3] > 100 µM | [4] > 100 µM | [5] > 100 µM | [6] > 100 µM | [7] > 100 µM | [8] > 100 µM | [9] > 100 µM | [10] > 100 µM | [11] > 100 µM | [12] > 100 µM | [13] > 100 µM | [14] > 100 µM | [15] > 100 µM | [16] > 100 µM | [19] > 100 µM | [17] > 100 µM | [18] > 100 µM

Cc1c2ccccc2cc2cccc[n+]12
inactive: [1] 6.52 µM | [4] 62.1 µM | [5] 6.82 µM | [8] 31.9 µM | [9] 39.8 µM | [10] 56.6 µM | [11] 25.7 µM | [12] 24.4 µM | [13] 28.6 µM | [14] 8.34 µM | [15] 61.8 µM | [16] 19.8 µM | [17] 13 µM

COc1ccc2c(c1)C(=O)C1CCC(=O)N1C2c1ccc2c(c1)OCO2 (centres undefined)
inactive: [1] 8.87 µM | [3] 15.7 µM | [4] 12.1 µM | [5] 21 µM | [6] 19.7 µM | [7] 12.9 µM | [8] 3.09 µM | [9] 30.8 µM | [10] 14.9 µM | [11] 11.3 µM | [12] 3.64 µM | [13] 13.8 µM | [14] 5.36 µM | [15] 24.8 µM | [16] 8.65 µM | [19] 14.2 µM | [17] 2.74 µM | [18] 25.4 µM

O=c1c(Cc2ccc(Cl)cc2)nnc2sc(-c3ccc([N+](=O)[O-])cc3)nn12
inactive: [1] 26.4 µM | [2] 48.1 µM | [4] 25.9 µM | [5] 24.3 µM | [6] 31.1 µM | [7] 16.9 µM | [8] 23.2 µM | [9] 25.8 µM | [10] 17.5 µM | [13] > 100 µM | [14] 31.1 µM | [15] 33.3 µM | [17] > 100 µM | [18] 28.7 µM

C=CCn1c(=O)c(-c2ccccc2)c(O)c2ccccc21
inactive: [1] > 100 µM | [2] > 100 µM | [3] > 100 µM | [4] > 100 µM | [5] > 100 µM | [6] > 100 µM | [8] > 100 µM | [9] > 100 µM | [10] > 100 µM | [11] > 100 µM | [12] > 100 µM | [13] > 100 µM | [14] > 100 µM | [15] > 100 µM | [16] > 100 µM | [17] > 100 µM | [18] > 100 µM
